Measured values as given in patent US20240158393A1, “PYRIDONE COMPOUNDS AND METHODS OF USE” (Exelixis, Inc., priority 2021, published 2024).

Experiments:
Assay type in all cases: biochemical
Human Met = target: T1, Human Met (Homo sapiens, UniProt P08581); experiment: Human Met kinase assay (33P radiometric / HTRF KinEase); details: protocols of Examples D-1 and/or D-2; read-out: c-Met IC50
T1 construct: Human MET (residues 956-1390)
Protocol: (§1) Kinase activity and compound inhibition were investigated using the ^33P-Phosphoryl transfer radiometric kinase assay, performed using the KinaseProfiler™ service of Eurofins Pharma Discovery Services UK Limited. Dose-response experiments were performed using nine compound concentrations in a 96-well microtiter plate. For each assay, all compounds were prepared to a 50× final assay concentration (50 μM) in 100% DMSO, then diluted in a half-log series, with the final top concentration at 1 μM. This working stock of the compound was added to the assay well as the first component in the reaction, followed by the remaining components as detailed in the following assay protocols below. The positive control wells (100% kinase activity) contain all components of the reaction including 2% DMSO (control for solvent effects), except the compound of interest. Blank wells contain all components of the reaction, with the reference inhibitor, staurosporine. This reference compound was used to abolish kinase activity and generated the 0% kinase activity base-line. IC50 values were calculated by nonlinear regression analysis using the sigmoidal dose-response (variable slope) curve fit on XLFit version 5.3 (ID Business Solutions).
(§2) Kinase activity and compound inhibition were also investigated using the HTRF® KinEase assay (Cisbio Cat #62TKOPEB) per manufacturer's instructions. In short, compounds were delivered in 300 nL volumes at 10 different concentrations in DMSO (3% final) to empty 384-well assay plates (Corning cat #3824). A mixture of enzyme, 1 μM biotinylated peptide substrate, and buffer in 10 μL volume was added. The assay was started upon the addition of ATP (at Km). The 10 μL reaction was incubated at room temperature. The reaction was stopped upon the addition of detection buffer containing streptavidin-XL665 (5 μL) and TK antibody-Eu3+(5 μL). After a 60 min incubation at room temperature, the fluorescence at 665 nm and 620 nm was read on an Envision microplate reader (Perkin Elmer).
(§3) Kinase activity normalized to DMSO (100% activity) and reference compound at 1 μM and (0% activity) was calculated using the fluorescence ratio […]. IC50 values were calculated by nonlinear regression analysis using a 4-parameter logistic curve fit in ActivityBase XE (IDBS).
Example D-1: Human Met (residues R974-S1390 with A1209G and V1290L, 3.4 nM) was incubated with 8 mM MOPS pH 7.0, 0.2 mM EDTA, 250 μM KKKGQEEEYVFIE (SEQ ID NO:3), 1 mM sodium orthovanadate, 5 mM […], 10 mM magnesium acetate, and 10 μM [γ-^33P-ATP]. The reaction was initiated by the addition of the Mg/ATP mix. After incubation for 40 minutes at room temperature, the reaction was stopped by the addition of phosphoric acid to a concentration of 0.5%. A reaction aliquot of 10 μL was then spotted onto a P30 filtermat and washed four times for 4 minutes in 0.425% phosphoric acid and once in methanol prior to drying and scintillation counting. Incorporated ^33P was measured using the Wallac Microbeta scintillation counter (Perkin Elmer).
(§4) Example D-2: Human MET (residues 956-1390; CarnaBio, 0.1 ng/well) was also incubated with enzymatic buffer (Cisbio) supplemented with 5 mM MgCl2, 1 mM DTT and 1 mM MnCl2. The mixture was added to the pre-plated compounds. The reaction was initiated upon addition of ATP at Km (3.0 μM). The reaction was incubated at room temperature for 40 min and stopped upon the addition of SA-XL665 and TK-antibody both diluted in EDTA-containing kinase detection buffer (Cisbio). The kinase activity was calculated as stated above and the IC50 values were reported.

Human Mer = target: T2, Human Mer (Homo sapiens, UniProt Q12866); experiment: Human Mer kinase assay (33P radiometric / HTRF KinEase); details: protocols of Examples C-1 and/or C-2
T2 construct: Human Mer (residues R557-E882 with H628Q and R794A, 0.7 nM); purchased Eurofins Pharma Discovery Services UK Limited (KinaseProfiler service)
T2 sequence (Q12866 557-882 limits assumed): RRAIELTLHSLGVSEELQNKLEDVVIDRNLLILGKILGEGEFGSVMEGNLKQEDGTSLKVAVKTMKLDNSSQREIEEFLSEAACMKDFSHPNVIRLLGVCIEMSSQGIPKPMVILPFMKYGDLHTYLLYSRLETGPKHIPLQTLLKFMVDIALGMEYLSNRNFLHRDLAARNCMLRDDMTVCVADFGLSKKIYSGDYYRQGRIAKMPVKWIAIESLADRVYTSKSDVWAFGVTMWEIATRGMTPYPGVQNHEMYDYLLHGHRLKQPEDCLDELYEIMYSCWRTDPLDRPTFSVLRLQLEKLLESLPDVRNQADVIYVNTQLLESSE
Protocol: as §1, §2, §3
(§5) Example C-1: Human Mer (residues R557-E882 with H628Q and R794A, 0.7 nM) was incubated with 8 mM MOPS pH 7.0, 0.2 mM EDTA, 30 mM NaCl, 250 μM GGMEDIYFEFMGGKKK (SEQ ID NO: 2), 10 mM magnesium acetate, and 10 μM [γ-^33P-ATP]. The reaction was initiated by the addition of the Mg/ATP mix. After incubation for 40 minutes at room temperature, the reaction was stopped by the addition of phosphoric acid to a concentration of 0.5%. A reaction aliquot of 10 μL was then spotted onto a P30 filtermat and washed four times for 4 minutes in 0.425% phosphoric acid and once in methanol prior to drying and scintillation counting. Incorporated ^33P was measured using the Wallac Microbeta scintillation counter (Perkin Elmer).
Example C-2: Human MER (residues 528-999; CarnaBio, 1 ng/well) was also incubated with enzymatic buffer (Cisbio) supplemented with 5 mM MgCl2 and 1 mM DTT. The mixture was added to the pre-plated compounds. The reaction was initiated upon addition of ATP at Km (40 μM). The reaction was incubated at room temperature for 60 min and stopped upon the addition of SA-XL665 and TK-antibody both diluted in EDTA-containing kinase detection buffer (Cisbio). The kinase activity was calculated as stated above and the IC50 values were reported.

Human KDR = target: T3, Human KDR (Homo sapiens, UniProt P35968); experiment: Human KDR kinase assay (33P radiometric / HTRF KinEase); details: protocols of Examples B-1 and/or B-2
T3 construct: Human KDR (residues K790-V1356, 55 nM); purchased Eurofins Pharma Discovery Services UK Limited (KinaseProfiler, B-1) and/or CarnaBio (B-2)
Protocol: as §1, §2, §3
as §5, with “B-1:” for “C-1:”, “KDR” for “Mer”, “K790-V1356, 55” for “R557-E882 with H628Q and R794A, 0.7”, “0.33 mg/mL myelin basic protein,” for “30 mM NaCl, 250 μM GGMEDIYFEFMGGKKK (SEQ ID NO: 2),”
as §4, with “B-2:” for “D-2:”, “KDR” for “MET”, “790-1356;” for “956-1390;”, “MnCl2,” for “DTT”, “DTT.” for “MnCl2.”, “(4.0” for “(3.0”

T3 sequence (P35968 790-1356): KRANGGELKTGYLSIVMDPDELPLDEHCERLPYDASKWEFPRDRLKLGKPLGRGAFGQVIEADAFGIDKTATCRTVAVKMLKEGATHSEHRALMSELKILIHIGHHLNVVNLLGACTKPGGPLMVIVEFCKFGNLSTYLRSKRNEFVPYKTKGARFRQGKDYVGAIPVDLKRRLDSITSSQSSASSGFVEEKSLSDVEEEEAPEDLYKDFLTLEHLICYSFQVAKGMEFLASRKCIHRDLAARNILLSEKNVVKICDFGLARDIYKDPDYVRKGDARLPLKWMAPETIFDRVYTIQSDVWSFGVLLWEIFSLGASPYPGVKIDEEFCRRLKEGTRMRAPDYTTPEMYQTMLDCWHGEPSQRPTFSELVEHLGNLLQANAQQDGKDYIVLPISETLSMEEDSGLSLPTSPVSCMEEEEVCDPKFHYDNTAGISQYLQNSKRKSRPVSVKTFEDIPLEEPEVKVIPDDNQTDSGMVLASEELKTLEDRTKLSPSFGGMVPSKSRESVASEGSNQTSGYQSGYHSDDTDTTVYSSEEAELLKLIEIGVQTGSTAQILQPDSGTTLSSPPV
T1 sequence (P08581 974-1390 limits assumed): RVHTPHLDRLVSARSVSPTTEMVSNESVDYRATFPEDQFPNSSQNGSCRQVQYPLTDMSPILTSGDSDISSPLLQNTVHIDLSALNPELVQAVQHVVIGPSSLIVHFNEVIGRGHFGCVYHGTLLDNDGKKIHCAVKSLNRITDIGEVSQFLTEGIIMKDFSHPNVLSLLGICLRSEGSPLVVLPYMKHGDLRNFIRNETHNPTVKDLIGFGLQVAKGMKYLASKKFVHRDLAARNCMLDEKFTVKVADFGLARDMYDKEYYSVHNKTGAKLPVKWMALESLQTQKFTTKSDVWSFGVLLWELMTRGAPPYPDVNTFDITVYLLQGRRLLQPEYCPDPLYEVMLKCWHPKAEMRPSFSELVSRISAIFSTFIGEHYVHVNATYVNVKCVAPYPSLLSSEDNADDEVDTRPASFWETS

Compound	IC50 (Human Met)	IC50 (Human Mer)	IC50 (Human KDR)
COc1cnc2c(Oc3ccc(NC(=O)c4c(C)nc(C)c(OC)c4O)cc3)ccnc2c1 [Compound 59, 4-Hydroxy-5-methoxy-N-[4-[(7-methoxy-1,5-naphthyridin-4-yl)oxy]phenyl]-2,6-dimethylpyridine-3-carboxamide]	> 300 nM	≤ 100 nM	100 to 300 nM
C=C(C)c1c(C)nc(C)c(C(=O)Nc2ccc(Oc3ccnc4cc(OC)cnc34)c(F)c2)c1O [Compound 3, N-[3-Fluoro-4-[(7-methoxy-1,5-naphthyridin-4-yl)oxy]phenyl]-4-hydroxy-2,6-dimethyl-5-prop-1-en-2-ylpyridine-3-carboxamide]	≤ 100 nM	≤ 100 nM	≤ 100 nM
CCc1c(Br)c(=O)c(C(=O)Nc2ccc(Oc3ccnc4cc(OCCOC)c(OC)nc34)cc2)cn1C [Compound 64, 5-Bromo-6-ethyl-N-[4-[[6-methoxy-7-(2-methoxyethoxy)-1,5-naphthyridin-4-yl]oxy]phenyl]-1-methyl-4-oxopyridine-3-carboxamide]	> 300 nM	≤ 100 nM	> 300 nM
CCc1c(Br)c(=O)c(C(=O)Nc2cc(F)c(Oc3ccnc4cc(OC)c(OC)nc34)cc2F)cn1C [Compound 63, 5-Bromo-N-[4-[(6,7-dimethoxy-1,5-naphthyridin-4-yl)oxy]-2,5-difluorophenyl]-6-ethyl-1-methyl-4-oxopyridine-3-carboxamide]	> 300 nM	≤ 100 nM	> 300 nM
COc1cc2nccc(Oc3ccc(NC(=O)c4c(C)nc(C)c(OC)c4O)cc3)c2nc1OC [Compound 61, N-[4-[(6,7-Dimethoxy-1,5-naphthyridin-4-yl)oxy]phenyl]-4-hydroxy-5-methoxy-2,6-dimethylpyridine-3-carboxamide]	> 300 nM	> 300 nM	≤ 100 nM
COCCOc1cnc2c(Oc3ccc(NC(=O)c4c(C)n(C)c(C)c(C5=CCOCC5)c4=O)cc3F)ccnc2c1 [Compound 67, 5-(3,6-Dihydro-2H-pyran-4-yl)-N-[3-fluoro-4-[[7-(2-methoxyethoxy)-1,5-naphthyridin-4-yl]oxy]phenyl]-1,2,6-trimethyl-4-oxopyridine-3-carboxamide]	> 300 nM	> 300 nM	> 300 nM

Continued, values first:

IC50 (Human Met)	IC50 (Human Mer)	IC50 (Human KDR)	Compound
≤ 100 nM	≤ 100 nM	> 300 nM	COc1cc2nccc(Oc3ccc(NC(=O)c4c5n(cc(C6=CCCC6)c4=O)CCOC5)cc3)c2nc1OC [Compound G1-6, 7-(Cyclopenten-1-yl)-N-[4-[(6,7-dimethoxy-1,5-naphthyridin-4-yl)oxy]phenyl]-8-oxo-3,4-dihydro-1H-pyrido[2,1-c][1,4]oxazine-9-carboxamide]
> 300 nM	> 300 nM	> 300 nM	COc1cc2nccc(Oc3ccc(NC(=O)c4c(C)n(C)c(C)c(C#N)c4=O)cc3F)c2nc1OC [Compound 78, 5-Cyano-N-[4-[(6,7-dimethoxy-1,5-naphthyridin-4-yl)oxy]-3-fluorophenyl]-1,2,6-trimethyl-4-oxopyridine-3-carboxamide]
≤ 100 nM	≤ 100 nM	> 300 nM	COc1cc2nccc(Oc3ccc(NC(=O)c4c5n(cc(C6=CCOCC6)c4=O)CCOC5)cc3F)c2nc1OC [Compound G1-7, 7-(3,6-Dihydro-2H-pyran-4-yl)-N-[4-[(6,7-dimethoxy-1,5-naphthyridin-4-yl)oxy]-3-fluorophenyl]-8-oxo-3,4-dihydro-1H-pyrido[2,1-c][1,4]oxazine-9-carboxamide]
≤ 100 nM	≤ 100 nM	100 to 300 nM	COc1cc2nccc(Oc3ccc(NC(=O)c4c5n(cc(C6=CCCC6)c4=O)CCOC5)cc3F)c2nc1OC [Compound G1-1, 7-(Cyclopenten-1-yl)-N-[4-[(6,7-dimethoxy-1,5-naphthyridin-4-yl)oxy]-3-fluorophenyl]-8-oxo-3,4-dihydro-1H-pyrido[2,1-c][1,4]oxazine-9-carboxamide]
